From the METLIN SMRT retention time set (Domingo-Almenara et al. 2019)

Assay: gradient 5% acetonitrile 3 min, to 50% in 2 min, to 85% in 15 min, held 3 min, 100 µL/min
Conditions: column: Zorbax Extend-C18 2.1 x 50 mm; eluents: water / acetonitrile, 0.1% formic acid
Summary of the method: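 Data were gathered over 3 months by HPLC coupled to a quadrupole time-of-flight mass spectrometer, operated in positive and negative ionization mode. Mixtures of ~100 pure standards ran on a Zorbax Extend-C18 column (2.1 × 50 mm, 1.8 μm) at 100 μL/min, with water and acetonitrile each containing 0.1% formic acid and dead and dwell volumes of 40 μL and 900 μL. Retention time was read from adduct peaks picked by computer and checked manually.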

SMILES | RP-LC retention time [s]
Cc1noc2nc(CCC(=O)NCc3ccc(F)cc3Cl)nc(N3CCOCC3)c12 | 666
CN(C)[C@@H]1CN(C(=O)CCc2nc3ccc(Cl)cc3[nH]2)C[C@H]1CO | 529
CCCc1noc(CN2N=C(C(=O)N3CCC(C)CC3)S(=O)(=O)c3ccccc32)n1 | 954
CCc1ccccc1Nc1nc(-c2ccc(Cl)cc2)cs1 | 1310
COc1ccc(-c2noc(C3CCCN3C(=O)CNC(=O)c3cccs3)n2)cc1 (centres undefined) | 788
CCOc1ccc(C2Cn3nnc(-c4nc(-c5cccc(C)c5)no4)c3CO2)cc1 (centres undefined) | 1270
c1cc(-c2noc(C3CCOC3)n2)cc(N2CCOCC2)n1 (centres undefined) | 651
Cc1cc(NC(=O)Cn2cccc2-c2nc(-c3ccc4c(c3)OCO4)no2)n[nH]1 | 786
Cn1c(C(=O)N(CCc2ccccc2)Cc2ccccc2)cc2c(=O)n3ccccc3nc21 | 1030
O=C(CCC1CCN(c2cc(NC3CC3)ncn2)CC1)NCc1cc(F)cc(F)c1 | 673
Cc1ccc(-c2nnc(SCC(=O)N3CCC(C)CC3)o2)cc1 | 986
Cc1ccc(-c2csc(NC(=O)c3sc(C)nc3C)n2)cc1 | 974
CSc1cccc2sc(N(Cc3ccco3)C(=O)c3ccc(C#N)cc3)nc12 | 1110
CC1CCCCN1CCCNC(=O)C1CCN(c2nc3cccnc3s2)CC1 (centres undefined) | 587
Cc1c(-c2nnc(C(=O)NCCN(C)C)o2)oc2c(C)cccc12 | 651
CCOC(=O)c1c(C)[nH]c(C)c1S(=O)(=O)N1CCC(C(=O)NCCN2CCCCCC2)CC1 | 592
COc1cc([C@@H]2c3cc4c(cc3[C@H](O)[C@@H](CO)[C@@H]2C(=O)N2CCN(c3ccccc3)CC2)OCO4)cc(OC)c1OC | 749
CCCN1C(=O)COc2ccc(-c3csc(NC(=O)CCC4CCCCC4)n3)cc21 | 1270
Cc1ccc(NC(=O)C2(CCO)CCN(c3ncccn3)C2)cc1 (centres undefined) | 630
Cc1ccc(CNC(=O)C2CCN(S(=O)(=O)c3ccc(-c4noc(C5CC5)n4)cc3)CC2)o1 | 938
COc1ccccc1-c1nc(-c2cn(Cc3cccc(F)c3)nn2)no1 | 936

SMILES | RP-LC retention time [s]
Cc1ccc(-c2cc(NC(=O)Cc3ccsc3)on2)s1 | 966
Cc1csc(-c2cc(S(=O)(=O)NC(C)(C)C)cn2CC(=O)N2CCCCC2)n1 | 926
CN1CCn2ccnc2C12CCN(S(=O)(=O)c1ccccc1C(F)(F)F)CC2 | 654
COc1ccc(-c2noc(CN3N=NC4C(=O)N(c5ccc(C)c(Cl)c5)C(=O)C43)n2)c(OC)c1 (centres undefined) | 974
CCOC(=O)Cc1csc(NC(=O)CSc2nc(C)nc3sc4c(c23)CCC4)n1 | 998
COc1ccccc1-c1coc2cc(OC(=O)c3cccc([N+](=O)[O-])c3)ccc2c1=O | 1010
CCc1nnc(NC(=O)c2ccc3c(c2)c(=O)cc(C)n3CC)s1 | 571
COc1nn(C)cc1C(=O)Nc1nnc(-c2cc(C)oc2C)o1 | 666
CN(CCc1noc(-c2ccc(C(=O)N3CCCCC3)cc2)n1)C(=O)c1ccc2c(c1)OCO2 | 779
COc1cc(NC(=O)N2CCOc3ccc(Cl)cc32)cc(OC)c1OC | 899
Cc1ccc(N2CCN(c3nccn4nc(-c5ccc(Cl)cc5)cc34)CC2)cc1 | 1400
CCOc1ccc(CNC(=O)c2cnc(OC)nc2)cc1 | 732
O=C(NCCCN1CCOCC1)C1c2ccccc2C(=O)N(C2CCCC2)C1c1cccs1 (centres undefined) | 646
CCCn1cc(S(=O)(=O)NCc2ccccc2OC)c2cccnc21 | 890
CCC(=O)n1nc(-c2ccccc2Cl)nc1N | 837
COC(=O)c1cnn2c(C)c(Cc3ccc(F)cc3)c(C)nc12 | 845
CC(C)NCC(O)c1ccc(N)c(C#N)c1 (centres undefined) | 563
CCCCN(C)C(=O)CCC1CCCN(c2cc(NCC)ncn2)C1 (centres undefined) | 658
Cc1noc(C)c1-c1ccc(S(=O)(=O)NC(C)C)cc1 | 812
COc1ccc(S(=O)(=O)Nc2cc3sc(=O)oc3c3ccccc23)cc1 | 894
COc1ccc(C(O)CN2CCN(c3cccc(OC)c3)CC2)cc1 (centres undefined) | 647

SMILES | RP-LC retention time [s]
CCOc1ccc(-c2cn3ccn(-c4cccc(Cl)c4)c(=O)c3n2)cc1 | 899
CCc1ccc(-c2noc(CN3C(=O)COc4cc(C)ccc43)n2)cc1 | 1170
CCc1nccn1Cc1noc(-c2ccccc2)n1 | 634
Cc1ccc2nc(CN(C)Cc3ccc(Cl)cc3)cc(=O)n2c1 | 627
COC[C@@H]1CN(Cc2ccc(F)c(Cl)c2)C[C@H]1c1nc(C)no1 | 580
CCC(C)NC(=O)C1CCN(c2cnc(N3CCCCC3)nc2)CC1 (centres undefined) | 686
C=CCn1c(C)c(CC(=O)NCC(C)C)c(=O)n2nc(-c3ccccc3)nc12 | 779
CN(CCc1noc(C2CN(Cc3ccc(Cl)c(F)c3)C2)n1)S(C)(=O)=O | 633
CS(=O)(=O)N1CCc2ccc(C(=O)NCCN3CCC(N4CCCCC4)CC3)cc21 | 583
CCOc1ccc(C(=O)Nc2nc(-c3cccc(Br)c3)cs2)cc1 | 1240
CSc1nc(N2CCCC2)c2cnn(CCNC(=O)c3ccc(=O)[nH]c3)c2n1 | 593
CCN(CC)CCCNC(=O)C1CCCN(C(=O)c2nnc(C(=O)Nc3ccc(F)cc3)s2)C1 (centres undefined) | 652
CCOc1ccc(NC(=O)NCCc2nc3cccnc3n2C2CCCC2)cc1 | 721
CCc1ccc(S(=O)(=O)N2CCC3(CC2)NCCN=C3NCc2ccccc2)cc1 | 742
Cc1nc(C)c(C(=O)N2CCCC2c2nc(CCOCC3CC3)no2)s1 (centres undefined) | 732
c1cncc(CN2CCCC(OCc3nc(-c4ccncc4)no3)C2)c1 (centres undefined) | 557
CCC(c1ccccc1)c1nc(-c2ccc3nnn(C)c3c2)no1 (centres undefined) | 1100
CCOc1ccc(S(=O)(=O)N2CCC(C(=O)N(CC)CC)CC2)cc1C | 934
CC(C)n1cnnc1CC1CCN(C(=O)Nc2ccc3c(c2)OCCO3)CC1 | 625
COc1ccc(-n2ccc(=O)c(-c3nc(-c4cc(OC)cc(OC)c4)no3)n2)cc1 | 887

Other lines, results leading:

RP-LC retention time [s] | SMILES
617 | CC(=O)Nc1ccc(CC(=O)N2C[C@@H]3CCN(S(C)(=O)=O)C[C@]3(CF)C2)cc1
1150 | CCOC(=O)CC1=CC(SCC(=O)N2CCC(C)CC2)=Nc2ccccc2N1
728 | CC(=O)N1CCc2cc(N3CC(C(=O)Nc4ccccc4C(C)C)CC3=O)ccc21 (centres undefined)
1260 | Cn1c(C(=O)NCc2ccccc2Cl)cc2sc(Cl)cc21
669 | COc1cc(NC(=O)CN2CCN(Cc3ccccc3)C(=O)C2=O)cc(OC)c1OC
1040 | O=C(Nc1ccc2c(c1)OCCO2)C(=O)c1cccn1Cc1ccccc1
772 | CC(C)C(=O)Nc1cc2c(cc1S(=O)(=O)c1ccccc1)n(C)c(=O)n2C
706 | O=C(Cc1ccc(F)cc1)NC1CCN(c2cc(-c3ccccc3)[nH]n2)C1 (centres undefined)
953 | CCc1ccc(NC(=O)C2CCN(S(=O)(=O)c3ccc4c(c3)sc(=O)n4CC)CC2)cc1
681 | O=C(Nc1cccc2nsnc12)C1CCN(c2ccc(-c3ccc(F)cc3)nn2)CC1
790 | CCOc1ccccc1C(=O)N1CCC2(CC1)NC(=O)c1ccc(Cl)cc1N2
817 | Cc1ccc(NC(=O)C2CCN(S(=O)(=O)c3ccc4c(c3)NC(=O)C(C)O4)CC2)cc1 (centres undefined)
637 | CN1CCC2(CC1)CN(C(=O)Nc1ccccc1)Cc1ccccc1O2
873 | O=C(Cc1csc2nc(-c3ccccc3)cn12)N1CCCc2ccccc21
704 | O=C(CN1CCN(C(=O)c2ccco2)CC1)Nc1cc(Cl)ccc1Cl
825 | CN1C(=O)Cc2cc(C(=O)N3CCN(c4ccccc4Cl)CC3)ccc21
955 | CSc1cccc(NC(=O)N2CCc3nc(-c4ccccc4)ncc3C2)c1
811 | COc1cc(NC(=O)N2CCCC(C)(C(=O)NCc3ccc(C)cc3)C2)cc(OC)c1OC (centres undefined)
804 | CCN(CC)S(=O)(=O)c1ccc2c(c1)CC(C(=O)N1CCCCC1)N2C(C)=O (centres undefined)
898 | COc1cccc(NC(=O)Nc2nccn(-c3ccc(F)cc3)c2=O)c1
717 | CCCn1cc(CCNC(=O)Nc2ccccc2C)c2cccnc21
737 | Cc1nc(-c2ccccc2)sc1C(=O)Nc1c(C)nc2ccc(Cl)cn2c1=O
613 | COc1ccc(OC)c(C(C)NC(=O)CCc2ccc3nc[nH]c3c2)c1 (centres undefined)
730 | O=C(NC1CC1)C1CCN(Cc2cc3ccccc3n2Cc2cccc(Cl)c2)CC1
1310 | Cc1ccc(N2CC(c3noc(-c4ccc(C(C)(C)C)cc4)n3)CC2=O)cc1 (centres undefined)
762 | COc1ccc(NC(=O)C2c3ccccc3C(=O)N3CCc4ccccc4C23)cc1OC (centres undefined)
544 | O=C([C@@H]1C[C@H](Oc2cccnc2)CN1C(=O)c1ccc2ncccc2c1)N1CCCC1
